Data reported in the CombiSolv-Exp solvation set (Vermeire and Green 2021).
Values belong to the compound of their own block, whether it stands above or below them.

Experiment: solvent given as SMILES

Compound: Nc1ncnc2c1ncn2C1CCC(CO)O1 (centres undefined)
solvation free energy, 298 K (in C=CCCCCCCC=C): -14.8 kcal/mol
solvation free energy, 298 K (in C=CCCCCCCCCCCCCCC): -14.7 kcal/mol
solvation free energy, 298 K (in O): -20.5 kcal/mol

Compound: Nc1ccc(S(N)(=O)=O)cc1
solvation free energy, 298 K (in O): -14.8 kcal/mol

Compound: ICI
solvation free energy, 298 K (in O): -2.49 kcal/mol

Compound: Nc1ccc(Cl)cc1
solvation free energy, 298 K (in O): -5.91 kcal/mol

Compound: Clc1ccc(-c2ccccc2Cl)cc1
solvation free energy, 298 K (in CCCCCCCCO): -10 kcal/mol
solvation free energy, 298 K (in O): -2.58 kcal/mol

Compound: O=[N+]([O-])c1cccc(Cl)c1
solvation free energy, 298 K (in O): -4.45 kcal/mol

Compound: CCNc1nc(Cl)nc(NC(C)(C)C#N)n1
solvation free energy, 298 K (in O): -13.2 kcal/mol

Compound: c1ccc2c(c1)ccc1ccccc12
solvation free energy, 298 K (in C1CCOC1): -11.5 kcal/mol
solvation free energy, 298 K (in C1COCCO1): -11.3 kcal/mol
solvation free energy, 298 K (in CC(=O)N(C)C): -11.4 kcal/mol
solvation free energy, 298 K (in CC(C)(C)O): -9.55 kcal/mol
solvation free energy, 298 K (in CC(C)=O): -11.3 kcal/mol
solvation free energy, 298 K (in CC(C)CC(C)(C)C): -9.75 kcal/mol
solvation free energy, 298 K (in CC(C)CC(C)O): -9.7 kcal/mol
solvation free energy, 298 K (in CC(C)CCO): -9.73 kcal/mol
solvation free energy, 298 K (in CC(C)CO): -9.56 kcal/mol
solvation free energy, 298 K (in CC(C)O): -9.64 kcal/mol
solvation free energy, 298 K (in CCC(C)(C)O): -9.84 kcal/mol
solvation free energy, 298 K (in CCC(C)O): -9.64 kcal/mol
solvation free energy, 298 K (in CCCC(C)CO): -9.72 kcal/mol
solvation free energy, 298 K (in CCCC(C)O): -9.79 kcal/mol
solvation free energy, 298 K (in CCCCC(CC)CO): -9.87 kcal/mol
solvation free energy, 298 K (in CCCCCC): -10 kcal/mol
solvation free energy, 298 K (in CCCCCCC): -10.1 kcal/mol
solvation free energy, 298 K (in CCCCCCCC): -10.1 kcal/mol
solvation free energy, 298 K (in CCCCCCCCC=CCCCCCCCC(=O)OCC(COC(=O)CCCCCCCC=CCCCCCCCC)OC(=O)CCCCCCCC=CCCCCCCCC): -10.6 kcal/mol
solvation free energy, 298 K (in CCCCCCCCCC): -10.1 kcal/mol
solvation free energy, 298 K (in CCCCCCCCO): -10.3 kcal/mol
solvation free energy, 298 K (in CCCCCCCO): -10.1 kcal/mol
solvation free energy, 298 K (in CCCCCO): -10 kcal/mol
solvation free energy, 298 K (in CCCCO): -9.89 kcal/mol
solvation free energy, 298 K (in CCCCOC(C)=O): -11 kcal/mol
solvation free energy, 298 K (in CCCCOCCCC): -10.5 kcal/mol
solvation free energy, 298 K (in CCCO): -9.96 kcal/mol
solvation free energy, 298 K (in CCO): -10 kcal/mol
solvation free energy, 298 K (in CCOC(C)=O): -11.1 kcal/mol
solvation free energy, 298 K (in CN1CCCC1=O): -11.5 kcal/mol
solvation free energy, 298 K (in CO): -9.88 kcal/mol
solvation free energy, 298 K (in COC(C)(C)C): -10.7 kcal/mol
solvation free energy, 298 K (in COC(C)=O): -11.1 kcal/mol
solvation free energy, 298 K (in ClC(Cl)(Cl)Cl): -11 kcal/mol
solvation free energy, 298 K (in O): -3.8 kcal/mol
solvation free energy, 298 K (in O=C1CCCCC1): -11.4 kcal/mol

Compound: ClC(Cl)C(Cl)(Cl)Cl
solvation free energy, 298 K (in O): -1.31 kcal/mol

Compound: Clc1cccc(Cl)c1-c1c(Cl)cccc1Cl
solvation free energy, 298 K (in O): -2.17 kcal/mol

Compound: C1=CCCC1
solvation free energy, 298 K (in CN1CCCC1=O): -2.84 kcal/mol
solvation free energy, 298 K (in CN(C)C=O): -2.93 kcal/mol
solvation free energy, 298 K (in CS(C)=O): -2.72 kcal/mol
solvation free energy, 298 K (in O): 0.54 kcal/mol
solvation free energy, 298 K (in O=CN1CCOCC1): -2.52 kcal/mol

Compound: O=C(O)c1ccccc1
solvation free energy, 298 K (in C1CCOC1): -9.93 kcal/mol
solvation free energy, 298 K (in C1COCCO1): -9.81 kcal/mol
solvation free energy, 298 K (in C=CCCCCCCC=C): -6.26 kcal/mol
solvation free energy, 298 K (in C=CCCCCCCCCCCCCCC): -5.84 kcal/mol
solvation free energy, 298 K (in CC(=O)N(C)C): -10.1 kcal/mol
solvation free energy, 298 K (in CC(C)=O): -9.63 kcal/mol
solvation free energy, 298 K (in CC(C)CCO): -9.41 kcal/mol
solvation free energy, 298 K (in CC(C)CO): -9.4 kcal/mol
solvation free energy, 298 K (in CC(C)O): -9.63 kcal/mol
solvation free energy, 298 K (in CCC(C)O): -9.41 kcal/mol
solvation free energy, 298 K (in CCCC(C)O): -9.52 kcal/mol
solvation free energy, 298 K (in CCCCCCCCCCO): -9.21 kcal/mol
solvation free energy, 298 K (in CCCCCCCO): -9.27 kcal/mol
solvation free energy, 298 K (in CCCCCCO): -9.39 kcal/mol
solvation free energy, 298 K (in CCCCCO): -9.44 kcal/mol
solvation free energy, 298 K (in CCCCO): -9.58 kcal/mol
solvation free energy, 298 K (in CCCCOC(C)=O): -9.29 kcal/mol
solvation free energy, 298 K (in CCCCOCCCC): -8.8 kcal/mol
solvation free energy, 298 K (in CCCO): -9.6 kcal/mol
solvation free energy, 298 K (in CCO): -9.71 kcal/mol
solvation free energy, 298 K (in CCOC(C)=O): -9.43 kcal/mol
solvation free energy, 298 K (in CCOCC): -9.45 kcal/mol
solvation free energy, 298 K (in CN(C)C=O): -10.1 kcal/mol
solvation free energy, 298 K (in CNC=O): -10 kcal/mol
solvation free energy, 298 K (in CO): -9.81 kcal/mol
solvation free energy, 298 K (in O): -6.96 kcal/mol

Continued, values first:

solvation free energy, 298 K (in O): -4.42 kcal/mol
Compound: COC(OC)OC

solvation free energy, 298 K (in O): 0.14 kcal/mol
Compound: C=C1C=CC(C(C)C)CCC(C)=CCC1 (centres undefined)

solvation free energy, 298 K (in O): -2.48 kcal/mol
Compound: CCCCCC=CCC=CCCCCCCCC(=O)OC

solvation free energy, 298 K (in O): -0.15 kcal/mol
Compound: C=C(C)C1CCC2=CCCC(C)C2(C)C1 (centres undefined)

solvation free energy, 298 K (in O): -15.6 kcal/mol
Compound: O=C(c1cc([N+](=O)[O-])cc([N+](=O)[O-])c1)N(O)c1ccccc1

solvation free energy, 298 K (in C=CCCCCCCC=C): -2.71 kcal/mol
solvation free energy, 298 K (in C=CCCCCCCCCCCCCCC): -2.41 kcal/mol
solvation free energy, 298 K (in [2H]O[2H]): -6.55 kcal/mol
Compound: CC(=O)O

solvation free energy, 298 K (in CCCCCCCCCCCCCCCC): -4.14 kcal/mol
solvation free energy, 298 K (in CCOC(C)=O): -6.66 kcal/mol
Compound: CS(C)=O
